Test results reported in ChEMBL document CHEMBL3885861, “Open TG-GATES”.

Organism: Rattus norvegicus
Assay: Open TG-GATES - Regimen: Daily Repeat
Assay type: toxicity, organism-based, Sprague-Dawley
Set-up: regimen Daily Repeat, gender Male, age 6 weeks
Conditions: in vivo, po, route gavage; for APTT / Bas / Eos / Fbg / Ht / Lym / MCHC / MCV / Mono / RBC / Ret / WBC / Hb / Neu: tissue Blood; for KIDNEY_L / KIDNEY_R / KIDNEY_TOTAL: tissue Kidney; for ALP / ALT / AST / BUN / CRE / Ca / Cl / DBIL / GLC / IP / K / PL / RALB / TBIL / TC / TG / TP / gamma-GTP: tissue Plasma
[1] = 0 mg/kg, 72 h, dose level Control, time 3 day
[2] = 0 mg/kg, […], dose level Control, time 7 day
[3] = 0 mg/kg, […], dose level Control, time 14 day
[4] = 0 mg/kg, […], dose level Control, time 28 day
[5] = 20 mg/kg, 72 h, dose level Low, time 3 day
[6] = 20 mg/kg, […], dose level Low, time 7 day
[7] = 20 mg/kg, […], dose level Low, time 14 day
[8] = 20 mg/kg, […], dose level Low, time 28 day
[9] = 60 mg/kg, 72 h, dose level Middle, time 3 day

CCCCC1C(=O)N(c2ccccc2)N(c2ccccc2)C1=O [PHENYLBUTAZONE]
TERMINAL_BW [1]: 239.7 g
APTT [1]: 16.9 s
Bas [1]: 0%
Eos [1]: 1%
Fbg [1]: 233.4 mg/dL
Ht [1]: 42.7%
Lym [1]: 81.6%
MCHC [1]: 33.3%
MCV [1]: 63.6 fL
Mono [1]: 5.6%
RBC [1]: 672.8 x10_4/ul
Ret [1]: 7.3%
WBC [1]: 131.2 x10_2/uL
KIDNEY_L [1]: 1.1 g
KIDNEY_R [1]: 1.1 g
KIDNEY_TOTAL [1]: 2.2 g
ALP [1]: 868 IU/L
ALT [1]: 35.2 IU/L
AST [1]: 61 IU/L
BUN [1]: 17.4 mg/dL
CRE [1]: 0.6 mg/dL
Ca [1]: 10.6 mg/dL
Cl [1]: 105 meq/L
DBIL [1]: 0 mg/dL
GLC [1]: 195.2 mg/dL
IP [1]: 9 mg/dL
K [1]: 5.1 meq/L
PL [1]: 170.6 mg/dL
RALB [1]: 4 g/dL
TBIL [1]: 0.3 mg/dL
TC [1]: 86.6 mg/dL
TG [1]: 136.4 mg/dL
TP [1]: 6.1 g/dL
gamma-GTP [1]: 1.6 IU/L
TERMINAL_BW [2]: 268.9 g
TERMINAL_BW [3]: 318.1 g
TERMINAL_BW [4]: 373 g
APTT [2]: 15.7 s
Bas [2]: 0%
Eos [2]: 0.8%
Fbg [2]: 242.2 mg/dL
Hb [2]: 13.9 g/dL
Ht [2]: 42.1%
Lym [2]: 84.2%
MCHC [2]: 33.1%
MCV [2]: 62.4 fL
Mono [2]: 6.6%
Neu [2]: 8.8%
RBC [2]: 674.8 x10_4/ul
Ret [2]: 5.4%
WBC [2]: 155.4 x10_2/uL
APTT [3]: 16.4 s
Bas [3]: 0%
Eos [3]: 0.6%
Fbg [3]: 227.8 mg/dL
Hb [3]: 15 g/dL
Ht [3]: 44.8%
Lym [3]: 84.8%
MCHC [3]: 33.6%
MCV [3]: 62.7 fL
Mono [3]: 4.2%
Neu [3]: 10.2%
RBC [3]: 714.8 x10_4/ul
Ret [3]: 4.4%
WBC [3]: 131.9 x10_2/uL
APTT [4]: 16 s
Bas [4]: 0%
Eos [4]: 1%
Fbg [4]: 233 mg/dL
Hb [4]: 15.7 g/dL
Ht [4]: 46.9%
Lym [4]: 82.8%
MCHC [4]: 33.4%
MCV [4]: 56.2 fL
Mono [4]: 4.2%
RBC [4]: 835.8 x10_4/ul
Ret [4]: 2.1%
WBC [4]: 151.8 x10_2/uL
KIDNEY_L [2]: 1.2 g
KIDNEY_R [2]: 1.1 g
KIDNEY_TOTAL [2]: 2.3 g
KIDNEY_L [3]: 1.2 g
KIDNEY_R [3]: 1.2 g
KIDNEY_TOTAL [3]: 2.3 g
KIDNEY_L [4]: 1.4 g
KIDNEY_R [4]: 1.4 g
KIDNEY_TOTAL [4]: 2.7 g
ALP [2]: 919.6 IU/L
ALT [2]: 35.6 IU/L
AST [2]: 69 IU/L
BUN [2]: 18.8 mg/dL
CRE [2]: 0.5 mg/dL
Ca [2]: 10.6 mg/dL
Cl [2]: 105.4 meq/L
DBIL [2]: 0.006 mg/dL
GLC [2]: 210.8 mg/dL
IP [2]: 8.9 mg/dL
K [2]: 4.9 meq/L
RALB [2]: 3.9 g/dL
TBIL [2]: 0.3 mg/dL
TC [2]: 74.4 mg/dL
TG [2]: 112.6 mg/dL
TP [2]: 6.6 g/dL
gamma-GTP [2]: 1.8 IU/L
ALP [3]: 748 IU/L
ALT [3]: 31.4 IU/L
AST [3]: 57.8 IU/L
BUN [3]: 19.6 mg/dL
CRE [3]: 0.6 mg/dL
Ca [3]: 10.5 mg/dL
Cl [3]: 108 meq/L
DBIL [3]: 0.016 mg/dL
GLC [3]: 207.4 mg/dL
IP [3]: 7.9 mg/dL
K [3]: 4.7 meq/L
PL [3]: 160.4 mg/dL
RALB [3]: 4 g/dL
TBIL [3]: 0.3 mg/dL
TC [3]: 79.2 mg/dL
TG [3]: 177.6 mg/dL
TP [3]: 6.2 g/dL
gamma-GTP [3]: 1.2 IU/L
ALP [4]: 692.8 IU/L
ALT [4]: 33 IU/L
AST [4]: 62 IU/L
BUN [4]: 20.2 mg/dL
CRE [4]: 0.6 mg/dL
Ca [4]: 10.1 mg/dL
Cl [4]: 107.6 meq/L
DBIL [4]: 0.008 mg/dL
GLC [4]: 200 mg/dL
IP [4]: 6.8 mg/dL
K [4]: 4.5 meq/L
RALB [4]: 3.9 g/dL
TBIL [4]: 0.3 mg/dL
TC [4]: 61 mg/dL
TG [4]: 170.2 mg/dL
TP [4]: 6.4 g/dL
gamma-GTP [4]: 2 IU/L
TERMINAL_BW [5]: 234.1 g
APTT [5]: 16.6 s
Bas [5]: 0%
Eos [5]: 1%
Fbg [5]: 220 mg/dL
Ht [5]: 42.6%
Lym [5]: 76.6%
MCHC [5]: 33.4%
MCV [5]: 66.3 fL
Mono [5]: 8.4%
Neu [5]: 14%
RBC [5]: 643.4 x10_4/ul
Ret [5]: 7.4%
WBC [5]: 137.6 x10_2/uL
KIDNEY_L [5]: 1 g
KIDNEY_R [5]: 1 g
KIDNEY_TOTAL [5]: 2 g
ALP [5]: 895.4 IU/L
ALT [5]: 37.2 IU/L
AST [5]: 63.2 IU/L
BUN [5]: 16 mg/dL
CRE [5]: 0.6 mg/dL
Ca [5]: 10.4 mg/dL
Cl [5]: 106.4 meq/L
DBIL [5]: 0 mg/dL
GLC [5]: 195.6 mg/dL
IP [5]: 8.1 mg/dL
K [5]: 4.9 meq/L
PL [5]: 170.4 mg/dL
RALB [5]: 4 g/dL
TBIL [5]: 0.3 mg/dL
TC [5]: 86.2 mg/dL
TG [5]: 125.8 mg/dL
TP [5]: 6 g/dL
gamma-GTP [5]: 1.6 IU/L
TERMINAL_BW [6]: 263.4 g
TERMINAL_BW [7]: 327.9 g
TERMINAL_BW [8]: 390.6 g
APTT [6]: 16.5 s
Bas [6]: 0%
Eos [6]: 0.8%
Fbg [6]: 229.8 mg/dL
Hb [6]: 14.3 g/dL
Ht [6]: 42.8%
Lym [6]: 85.2%
MCHC [6]: 33.5%
MCV [6]: 64.2 fL
Mono [6]: 5%
Neu [6]: 8.8%
RBC [6]: 668 x10_4/ul
Ret [6]: 5.4%
APTT [7]: 16.2 s
Bas [7]: 0%
Eos [7]: 0.8%
Fbg [7]: 226.8 mg/dL
Hb [7]: 14.8 g/dL
Ht [7]: 44.2%
Lym [7]: 85%
MCHC [7]: 33.5%
MCV [7]: 62.7 fL
Mono [7]: 4.4%
Neu [7]: 10%
RBC [7]: 705.2 x10_4/ul
Ret [7]: 5.1%
WBC [7]: 153 x10_2/uL
APTT [8]: 15.5 s
Bas [8]: 0%
Eos [8]: 0.4%
Fbg [8]: 239.4 mg/dL
Hb [8]: 15.3 g/dL
Ht [8]: 45.7%
Lym [8]: 85.4%
MCHC [8]: 33.5%
MCV [8]: 58.2 fL
Mono [8]: 4%
RBC [8]: 786.8 x10_4/ul
Ret [8]: 2.4%
WBC [8]: 138.6 x10_2/uL
KIDNEY_L [6]: 1.2 g
KIDNEY_R [6]: 1.2 g
KIDNEY_TOTAL [6]: 2.4 g
KIDNEY_L [7]: 1.3 g
KIDNEY_R [7]: 1.3 g
KIDNEY_TOTAL [7]: 2.6 g
KIDNEY_L [8]: 1.4 g
KIDNEY_R [8]: 1.4 g
KIDNEY_TOTAL [8]: 2.7 g
ALP [6]: 882.4 IU/L
ALT [6]: 30 IU/L
AST [6]: 61.4 IU/L
BUN [6]: 18.6 mg/dL
CRE [6]: 0.5 mg/dL
Ca [6]: 10.5 mg/dL
Cl [6]: 105.8 meq/L
DBIL [6]: 0 mg/dL
GLC [6]: 193.6 mg/dL
IP [6]: 7.7 mg/dL
K [6]: 5.2 meq/L
RALB [6]: 4 g/dL
TBIL [6]: 0.3 mg/dL
TC [6]: 77 mg/dL
TG [6]: 119 mg/dL
TP [6]: 6.7 g/dL
gamma-GTP [6]: 1.4 IU/L
ALP [7]: 735.2 IU/L
ALT [7]: 27.6 IU/L
AST [7]: 57.2 IU/L
BUN [7]: 20.4 mg/dL
CRE [7]: 0.6 mg/dL
Ca [7]: 10.8 mg/dL
Cl [7]: 107.6 meq/L
DBIL [7]: 0.002 mg/dL
GLC [7]: 201 mg/dL
IP [7]: 8.2 mg/dL
K [7]: 5 meq/L
RALB [7]: 4 g/dL
TBIL [7]: 0.3 mg/dL
TC [7]: 71 mg/dL
TG [7]: 165.4 mg/dL
TP [7]: 6.2 g/dL
gamma-GTP [7]: 1.2 IU/L
ALP [8]: 633.6 IU/L
ALT [8]: 31.6 IU/L
AST [8]: 57.8 IU/L
BUN [8]: 21 mg/dL
CRE [8]: 0.6 mg/dL
Ca [8]: 10.5 mg/dL
Cl [8]: 106.8 meq/L
DBIL [8]: 0.012 mg/dL
GLC [8]: 193.2 mg/dL
IP [8]: 7.3 mg/dL
K [8]: 4.3 meq/L
RALB [8]: 4.2 g/dL
TBIL [8]: 0.3 mg/dL
TC [8]: 65.2 mg/dL
TG [8]: 208.8 mg/dL
TP [8]: 6.5 g/dL
gamma-GTP [8]: 1.8 IU/L
TERMINAL_BW [9]: 231.9 g
APTT [9]: 17.3 s
Bas [9]: 0%
